These results are taken from patent publication US20230157952A1, “METHOD FOR IMPROVING THE STABILITY OF A PHARMACEUTICAL COMPOSITION COMPRISING A HIGH PENETRATION DRUG, AND THE PHARMACEUTICAL COMPOSITION OBTAINED THEREFROM” (Techfields Inc., priority 2020, published 2023).

Non-standard residues stand in square brackets, D forms with d. *: point of attachment. Arg(NO2) = N=C(NCCC[C@H](N)C(=O)O)N[N+](=O)[O-]; OiPr = CC(C)O*

What all share (type): physicochemical
Series [1] is described as follows: Stability of the pure HPDs (dry solid) at 25° C./RH 60%. To be noted: for Purity: pure HPD, 25° C./RH 60%.
A short description of series [2]: Effect of pH value on the stability of the solution (purity). To be noted: 25° C.
Series [3] in a line: Effect of temperature (and pH) on the stability of the solution (purity). As to conditions: for Stability of the solution at a temperature higher than 40° C. and a pH lower than 3 or greater than 6: 7% solution in water.
Where [4] appears, read: day 28, pH 1.0, 7% solution in water.
Where [5] appears, read: day 28, pH 2.0, 7% solution in water.
Setting [6] is: day 28, pH 3.0, 7% solution in water.
Setting [7] is: day 28, pH 3.7, 7% solution in water.
[8] abbreviates: day 28, pH 5.0, 7% solution in water.
[9] abbreviates: day 28, pH 6.0, 7% solution in water.
Where [10] appears, read: day 28, pH 7.0, 7% solution in water.
The mark [11] stands for this setting: day 28, pH 8.0, 7% solution in water.
Setting [12] is: 5% solution with 1 equivalent sodium acetate in 25% ethanol, pH 4.49-4.51.
[13] abbreviates: pure HPD at 25° C./RH 60%, in % (unit assumed).

Take `Br.CCN(CC)CCOC(=O)[C@H](C)c1ccc(CC(C)C)cc1` (racemic) [C-1-4, 2-(diethylamino)ethyl (R,S)-2-(p-isobutylphenyl)propionate•HBr salt]: in series [1] (24 month), the Purity was 98.0 ± 0.5.
Consider `Br.CCN(CC)CCOC(=O)C(C)c1ccc2cc(OC)ccc2c1` (racemic) [C-2, 2-(diethylamino)ethyl (R,S)-2-(6-methoxy-2-naphthyl) propionate•HBr salt], for which the “Purity(%) from day 0-28” value is 69.7 ± 0.3% in series [2] (setting [4]); 80.1 ± 0.3% in series [2] (setting [5]); 90.7 ± 0.3% in series [2] (setting [6]); 97.1 ± 0.3% in series [2] (setting [7]); 96.5 ± 0.3% in series [2] (setting [8]); 89.0 ± 0.4% in series [2] (setting [9]). The “Purity(%) from day 0-28” value in series [2] (setting [10]) stood at 65.5 ± 0.3%; in series [2] (setting [11]) it was 45.5 ± 0.5%. Moreover, the Purity is given as 98.9 ± 0.1 in series [1] (3 month, listed as A-1-4); 98.6 ± 0.4 in series [1] (6 month, listed as A-1-4); 98.1 ± 0.1 in series [1] (9 month); 97.9 ± 0.3 in series [1] (18 month); 97.7 ± 0.4 in series [1] (24 month); 98.0 ± 0.4 in series [1] (24 month, listed as A-1-4). Moreover, in series [1] (Day 0, listed as A-1-4), the Purity is reported as 98.6 ± 0.3.
Turning to `CCN(CC)CCOC(=O)[C@H](C)c1ccc2cc(OC)ccc2c1.O=C(O)CC(O)(CC(=O)O)C(=O)O` (racemic) [C-3, 2-(diethylamino)ethyl (R,S)-2-(6-methoxy-2-naphthyl) propionate•citric acid salt], the “Purity(%) from day 0-28” value in series [2] (setting [4]) was 68.2 ± 0.4%; in series [2] (setting [5]), 80.1 ± 0.3%; in series [2] (setting [6]) it was 90.3 ± 0.3%; in series [2] (setting [7]), 96.8 ± 0.2%; in series [2] (day 28, pH 4.0, 7% solution in water), 97.1 ± 0.2%; in series [2] (day 28, pH 4.3, 7% solution in water) it was 97.1 ± 0.3%. Moreover, the “Purity(%) from day 0-28” value was 97.0 ± 0.3% in series [2] (day 28, pH 4.6, 7% solution in water); 96.0 ± 0.3% in series [2] (setting [8]); 88.4 ± 0.3% in series [2] (setting [9]); 55.8 ± 0.4% in series [2] (setting [10]); 35.8 ± 0.5% in series [2] (setting [11]). Also, the results for the Purity in series [1] (12 month), in series [1] (18 month) and in series [1] (24 month) were 98.1 ± 0.3, 97.9 ± 0.4 and 97.8 ± 0.3, respectively.
As to `CCN(CC)CCOC(=O)[C@@H](C)c1ccc2cc(OC)ccc2c1.Cl` [A-1-2, 2-(diethylamino)ethyl (S)-2-(6-methoxy-2-naphthyl) propionate•HCl salt], the Purity is reported as 98.0 ± 0.1 in series [1] (24 month) and 98.6 ± 0.3 in series [1] (Day 0).
As to `CCN(CC)CCOC(=O)[C@H](C)c1ccc2cc(OC)ccc2c1.Cl` [A-1-3, 2-(diethylamino)ethyl (R)-2-(6-methoxy-2-naphthyl) propionate•HCl salt], the Purity is given as 98.1 ± 0.2 in series [1] (18 month) and 97.9 ± 0.2 in series [1] (24 month).
Turning to `CCN(CC)CCOC(=O)C(C)c1ccc(-c2ccccc2)c(F)c1.Cl` (centres unmarked) [B-1-1, 2-(diethylamino)ethyl 2-(2-fluoro-4-biphenyl)propionate•HCl salt], the “Stability of the solution at a temperature higher than 40° C. and a pH lower than 3 or greater than 6” value in series [3] is recorded as “not stable”. Besides, the results for the Purity in series [1] (6 month), in series [1] (18 month) and in series [1] (24 month) were 98.1 ± 0.1, 98.1 ± 0.1 and 98.0 ± 0.1, respectively.
Regarding `CCN(CC)CCOC(=O)[C@@H](C)c1ccc(-c2ccccc2)c(F)c1.Cl` [B-1-2, 2-(diethylamino)ethyl (S)-2-(2-fluoro-4-biphenyl)propionate•HCl salt], the Purity stood at 98.6 ± 0.1 in series [1] (3 month) and 98.7 ± 0.2 in series [1] (Day 0).
Take `CCN(CC)CCOC(=O)[C@H](C)c1ccc(-c2ccccc2)c(F)c1.Cl` [B-1-3, 2-(diethylamino)ethyl (R)-2-(2-fluoro-4-biphenyl)propionate•HCl salt]: the Purity was found to be 98.1 ± 0.2 in series [1] (18 month) and 98.0 ± 0.1 in series [1] (24 month).
As for `Br.CCN(CC)CCOC(=O)C(C)c1ccc(-c2ccccc2)c(F)c1` (centres unmarked) [B-1-4, 2-(diethylamino)ethyl 2-(2-fluoro-4-biphenyl)propionate•HBr salt], the values for the Purity in series [1] (18 month), in series [1] (24 month) and in series [1] (Day 0) were 98.1 ± 0.1, 97.9 ± 0.1 and 98.6 ± 0.2, respectively.
`CCN(CC)CCOC(=O)[C@@H](C)c1ccc(CC(C)C)cc1.Cl` [C-1-2, 2-(diethylamino)ethyl (S)-2-(p-isobutylphenyl)propionate•HCl salt] gave a Purity in series [1] (24 month) of 98.0 ± 0.5.
For the compound `CCN(CC)CCOC(=O)[C@H](C)c1ccc(CC(C)C)cc1.Cl` [C-1-3, 2-(diethylamino)ethyl (R)-2-(p-isobutylphenyl)propionate•HCl salt], the “Stability of the solution at a temperature higher than 40° C. and a pH lower than 3 or greater than 6” value in series [3] is “not stable”. The Purity in series [1] (6 month) is 98.1 ± 0.3; in series [1] (9 month), 98.0 ± 0.1; in series [1] (12 month), 98.0 ± 0.3; in series [1] (18 month), 97.9 ± 0.3; in series [1] (24 month), 97.8 ± 0.2.
For the compound “H-Ala-Pro-Gly-Pro-Arg(NO2)—OCH(CH3)2•HCl (H-APGP[Arg(NO2)]-OiPr; also: HCl salt) [T-2]”, in series [3] (setting [12]), the “Purity (%) at day 30 (60° C.)” value was determined as 32.8 ± 0.2%, the “Purity (%) at day 90 (60° C.)” value is listed as 0%, the “Purity (%) at day 180 (60° C.)” value was 0% and the “Purity (%) at day 360 (60° C.)” value was determined as 0%. For the same compound, in series [3] (setting [12]), the “Purity(%) at day 0” value came to 98.9 ± 0.2%, the “Purity(%) at day 30 (5° C.)” value was 98.8 ± 0.2%, the “Purity(%) at day 30 (25° C.)” value is listed as 97.8 ± 0.3% and the “Purity(%) at day 30 (40° C.)” value is on record as 71.3 ± 0.2%. Moreover, in series [3] (setting [12]), the “Purity(%) at day 90 (5° C.)” value stood at 98.5 ± 0.3%, the “Purity(%) at day 90 (25° C.)” value is 97.0 ± 0.2%, the “Purity(%) at day 90 (40° C.)” value amounted to 33.6 ± 0.2% and the “Purity(%) at day 180 (5° C.)” value is listed as 97.8 ± 0.2%. For the same compound, in series [3] (setting [12]), the “Purity(%) at day 180 (25° C.)” value is listed as 95.2 ± 0.3%, the “Purity(%) at day 180 (40° C.)” value is on record as 13.6 ± 0.2%, the “Purity(%) at day 360 (5° C.)” value is reported as 97.4 ± 0.3% and the “Purity(%) at day 360 (25° C.)” value turned out to be 92.3 ± 0.3%. Moreover, the “Purity(%) at day 360 (40° C.)” value in series [3] (setting [12]) turned out to be 0%. Besides, in series [1] (setting [13]), the “Purity at 3 month” value was found to be 98.9 ± 0.3, the “Purity at 6 month” value turned out to be 98.6 ± 0.2, the “Purity at 9 month” value stood at 98.6 ± 0.3 and the “Purity at 12 month” value amounted to 98.5 ± 0.2. In series [1] (setting [13]), the “Purity at 18 month” value is reported as 98.5 ± 0.2, the “Purity at 24 month” value was determined as 98.4 ± 0.2 and the “Purity at Day 0” value was found to be 98.9 ± 0.1. Moreover, the “Stability of the pure powder” value in series [1] (room temperature (25° C./RH 60%)) is reported as “very stable”.
